The subject of the experiment is LTB4 synthesis by peritoneal exudate cells. The experiment in a line: Ex vivo production of LTB4 from peritoneal exudate cells of drug-treated mice. The format is in vivo, mouse. The conditions noted are these: for inhibition at 100 mg/kg: Mus musculus, po, 100 mg/kg p.o. An excerpt: In the following Examples where mice were used, they were male Balb/c mice (20-28 g), and where rats were used, they were male Lewis rats (180-210 g). All mice and rats were obtained from Charles River Breeding Laboratories, Kingston, N.Y. Within a single experiment, mice and rats were sex and age matched. Auranofin, phenidone, indomethacin, naproxen, and ibuprofen were each used as the free base. The compounds of Formula (I) were used either as the free base or in the appropriate salt form. Levamisole was used as the hydrochloride salt. […] Nordihydroguaiaretic acid (NDGA) was solubilized in dimethylacetamide and diluted with olive oil for subcutaneous administration. Carrageenan-induced peritoneal exudate cells from normal or drug-treated mice were washed and suspended in 2.2 ml of phosphate buffered saline. […] The cell preparation was centrifuged at 1500 rpm for 10 min and the supernatant was extracted using a C-18 silica column. […] A tetrahydrofuran, methanol, water, acetic acid (25:30:45: 0.1) solvent system, adjusted to pH 5.5 with ammonium hydroxide, was used at a flow rate of 0.7 ml/min. Cell derived LTB4 was quantified utilizing standard curves constructed with known amounts of synthetic LTB4.

This is an account of results in US5134150A, “Inhibition of the 5-lipoxygenase pathway” (priority 1989, dated 1992).

The inhibition is the relative decrease from the control value, in per cent. Read a high inhibition as strong suppression. Take `Fc1ccc(-c2nc3n(c2-c2ccncc2)CCS3)cc1` [Compound 1]: the inhibition at 100 mg/kg is, setting by setting: (Experiment 1) 90%; (Experiment 2) 23%; (Experiment 3) 100%. In addition, the “LTB4 production ex vivo, result in words” value (mouse, in vivo) was “Impairment of LTB4 production”.
